# Patent US10258640B2, “Method of inhibiting quorum sensing in Pseudomonas aeruginosa” (priority 2015, dated 2019)
# Experiments:
# [1] = test system: rhl quorum-sensing system; experiment: PA01 rhlA-gfp reporter assay; assay type: cell-based, Pseudomonas aeruginosa; conditions: various micromolar concentrations
# P. aeruginosa proteome = experiment: Proteomic analysis of auranofin-treated cultures; assay type: cell-based, Pseudomonas aeruginosa; conditions: proteome in presence or absence of auranofin
# elastase (LasB) = experiment: Elastase activity in culture supernatants (commercial elastase activity kit); assay type: cell-based, Pseudomonas aeruginosa; conditions: culture supernatants after 7 hours of treatment, various micromolar concentrations
# Experimental: LasB levels were measured using a commercial elastase activity kit.
# rhamnolipids = experiment: Rhamnolipid levels in culture supernatants (MRM mass spectrometry); assay type: cell-based, Pseudomonas aeruginosa; conditions: culture supernatants after 7 hours of treatment, various micromolar concentrations
# Experimental: Rhamnolipid levels were determined using multiple reaction monitoring (MRM) mass spectrometry.
# P. aeruginosa biofilms = experiment: Biofilm treatment (GFP-expressing cells, propidium iodide staining, imaging); assay type: cell-based, Pseudomonas aeruginosa
# Experimental: FIG. 8 depicts the effects of auranofin, and its combination either with colistin or tobramycin, on the morphology of biofilms formed using P. aeruginosa cells expressing green fluorescent protein (GFP). DNA from dead cells were labeled with propidium iodide. Auranofin was added either prior to (lower panels) or after formation of the biofilm (24 h before imaging, middle panels). Colistin and tobramycin were added after formation of the biofilm (24 h before imaging, middle panels). […] Scale bar: 5 μm.
# Quorum sensing inhibitors are known to affect biofilm morphology and structure. Since auranofin inhibits Vfr, which in turn affects quorum sensing, the effects of auranofin treatment on P. aeruginosa biofilms were investigated.
# [2] = test system: las quorum-sensing system; experiment: PA01 lasB-gfp cell-based fluorescence reporter assay; parameters: species or system Pseudomonas aeruginosa; conditions: various micromolar concentrations
# From the text: The inhibition of quorum sensing has been observed by the inventors during a chemical screen set up to look for small-molecule inhibitors of quorum sensing in P. aeruginosa. The assay used is a cell-based fluorescence assay (PA01 lasB-gfp) in which the expression of GFP is controlled by a las-regulated promoter. Inhibition of induction of the las quorum-sensing system by a small molecule is marked by the reduction in GFP signal relative to an untreated sample.
# P. aeruginosa = experiment: Growth of P. aeruginosa; assay type: cell-based, Pseudomonas aeruginosa; conditions: low micromolar concentrations
# [3] = test system: Δvfr strain expressing pentaCys Vfr; experiment: Twitching motility in Δvfr strain complemented with pentaCys Vfr; assay type: cell-based, Pseudomonas aeruginosa
# [4] = test system: lasA, rhlA, pqsA, exsC, pscL, pilM and pilY genes; experiment: Quantitative RT-PCR of RNA levels; assay type: cell-based, Pseudomonas aeruginosa
# P. aeruginosa (PA01) [5] = experiment: Twitching motility assay; assay type: cell-based, Pseudomonas aeruginosa; conditions: 10 μM
# From the text: (§1) The top-left and bottom-left petri dishes contain P. aeruginosa (PA01) and PA01-lasIrhlI, respectively, serving as the controls.
# P. aeruginosa (PA01) [6] = experiment: Swimming motility assay; assay type: cell-based, Pseudomonas aeruginosa; conditions: 10 μM
# [7] = test system: mutant Vfr proteins (C38S/C97S or C38S/C183S) binding to plasR; experiment: Electrophoretic mobility shift assay (EMSA), mutant Vfr; parameters: species or system Pseudomonas aeruginosa; conditions: increasing concentrations
# From the text: (§2) It depicts auranofin inhibiting the binding of wild-type Vfr, but not of the mutant pentaCys variant, to a DNA fragment containing the lasR promoter sequence (plasR) in a dose dependent manner.
# (§3) It was hypothesized that auranofin inhibits Vfr, a global response regulator dependent on cyclic-AMP, which is known to control Type III secretion, Type IV pilus assembly and the quorum sensing networks (las and rhl). This was validated using electrophoretic mobility shift assays (EMSA) (see FIG. 6). Based on the EMSA, it can be seen that the binding of wild-type Vfr to the promoter of lasR (plasR), was inhibited by treatment with auranofin. In contrast, the binding of mutant Vfr proteins (C38S/C97S or C38S/C183S) to the same DNA fragment was not inhibited by auranofin.
# [8] = molecular target: wild-type Vfr binding to the promoter of lasR (plasR) (Pseudomonas aeruginosa, UniProt P55222); experiment: Electrophoretic mobility shift assay (EMSA), wild-type Vfr; conditions: increasing concentrations
# From the text: as §2, §3
# [9] = test system: pqs quorum-sensing system; experiment: PA01 pqsA-gfp reporter assay; assay type: cell-based, Pseudomonas aeruginosa; conditions: various micromolar concentrations
# P. aeruginosa (PA01) [10] = experiment: Swarming motility assay; assay type: cell-based, Pseudomonas aeruginosa; conditions: 10 μM
# From the text: as §1
# pyocyanin = experiment: Pyocyanin levels in culture supernatants (absorbance at 691 nm); assay type: cell-based, Pseudomonas aeruginosa; conditions: culture supernatants after 7 hours of treatment, various micromolar concentrations
# Experimental: Pyocyanin levels were determined via absorbance at 691 nm.
# [11] = test system: Δvfr strain expressing pentaCys Vfr; experiment: Quorum sensing (LasB production) in Δvfr strain complemented with pentaCys Vfr; assay type: cell-based, Pseudomonas aeruginosa
# Sequence of wild-type Vfr binding to the promoter of lasR (plasR) (P55222 whole entry): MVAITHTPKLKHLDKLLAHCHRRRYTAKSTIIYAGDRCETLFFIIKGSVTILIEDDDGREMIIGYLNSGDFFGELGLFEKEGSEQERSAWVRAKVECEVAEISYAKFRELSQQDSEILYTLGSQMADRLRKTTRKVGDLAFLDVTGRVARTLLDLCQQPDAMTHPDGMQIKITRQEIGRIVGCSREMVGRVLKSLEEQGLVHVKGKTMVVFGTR
compound,measurement,setting,value
CC(=O)OC[C@H]1O[C@@H]([S-])[C@H](OC(C)=O)[C@@H](OC(C)=O)[C@@H]1OC(C)=O.CCP(CC)CC.[Au+] [auranofin],"induction of rhl (PA01 rhlA-gfp) quorum-sensing network, RFU/OD against time",[1],completely inhibiting
same,cellular levels of proteins controlled by quorum sensing,P. aeruginosa proteome,down-regulated
same,levels of proteins involved in Type III secretion and formation of the Type IV pilus,P. aeruginosa proteome,down-regulation
same,level of virulence factor LasB (elastase activity),elastase (LasB),reduced
same,level of virulence factor rhamnolipids,rhamnolipids,reduced
same,"biofilm morphology disruption and killing, together with colistin",P. aeruginosa biofilms; auranofin together with colistin,synergistic effects
same,"biofilm morphology disruption and killing, together with tobramycin",P. aeruginosa biofilms; auranofin together with tobramycin,synergistic effects
same,effect on biofilm morphology and cell death,P. aeruginosa biofilms; auranofin treatment prior to biofilm formation,substantial cell death and the loss of the characteristic morphology of normal biofilms
same,"induction of las (PA01 lasB-gfp) quorum-sensing network, RFU/OD against time",[2],completely inhibiting
same,effect on growth of P. aeruginosa,P. aeruginosa,not affecting growth
same,twitching in the strain expressing the pentaCys Vfr,[3],still able to inhibit
same,"RNA levels of quorum-sensing regulated, Type III secretion and Type IV pilus assembly genes",[4],generally down-regulated
same,twitching motility,P. aeruginosa (PA01) [5],inhibit
same,swimming motility,P. aeruginosa (PA01) [6],does not inhibit
same,binding of mutant Vfr proteins to the same DNA fragment (plasR),[7],not inhibited
same,binding of wild-type Vfr to the promoter of lasR (plasR),[8],inhibited
same,"induction of pqs (PA01 pqsA-gfp) quorum-sensing network, RFU/OD against time",[9],completely inhibiting
same,swarming motility,P. aeruginosa (PA01) [10],inhibit
same,level of virulence factor pyocyanin,pyocyanin,reduced
same,QS (LasB production) in the strain expressing the pentaCys Vfr,[11],still able to inhibit
OC[C@H]1O[C@H]([S-])[C@H](O)[C@@H](O)[C@@H]1O.[Au+] [aurothioglucose],"induction of las (PA01 lasB-gfp) quorum-sensing network, RFU/OD against time",[2],completely inhibiting
sodium aurothiomalate,"induction of las (PA01 lasB-gfp) quorum-sensing network, RFU/OD against time",[2],completely inhibiting
